From patent US20240190993A1, “NEW METHOD TO IMPROVE THE ANTI-TUMORAL ACTIVITY OF MACROPHAGES” (INSERM (INSTITUT NATIONAL DE LA SANTÉ ET DE LA RECHERCHE …, priority 2021, published 2024)
“Also recorded” adds a separate entry of the source.

Tests used:
CD47 [1] = assay: CD47 cell-surface expression in NXS2 cells in vitro, flow cytometry; format: cell-based, mouse; settings: 72 hours incubation, FIG. 2A-C
Experimental: (§1) FIG. 2. Both O-acetyl GD2-specific monoclonal antibody 8B6 and 13-cis-RA exposures induce CD47 phagocytosis checkpoint up-regulation in NB cells in vitro. The NB cells IMR5, LAN1 and NXS2 were respectively incubated for 72 hours with (A) 13-cis-RA, (B) mAb 8B6, and (C) 13-cis-RA plus mAb 8B6, as indicated. After incubation, CD47 cell surface expression was analyzed by flow cytometry analysis. […] Data are presented as the mean±SEM ([…]; **p<0.01; ***p<0.001; Mann-Whitney test).
(§2) We next interrogate the impact of mAb 8B6, used alone or in combination with 13-cis-RA, on CD47 cell-surface expression in human NB cell line. After 72 hours incubation, cells were harvested, stained with a CD47-specific mAb and then subjected to flow cytometry analysis. […] The tested treatments had little impact on CD47 NXS2 cell-surface expression (FIG. 2A-C).

CD47 [2] = assay: CD47 cell-surface expression in human NB cell lines in vitro, flow cytometry; format: cell-based; settings: human NB cell lines IMR5, LAN1; 72 hours incubation; FIG. 2A-C
Experimental: as §1, §2

NXS2 cells = assay: syngeneic model of NXS2 NB liver metastasis in A/J mice, liver weight; format: in vivo, mouse
Experimental: Depletion of macrophages in 8-week-old A/J mice was performed clodronate liposomes or liposomes obtained from Liposoma (Liposoma BV, Amsterdam, the Netherlands) according to the manufacturer's instructions. Mice were given either clodronate liposomes or liposome i.p. 4 days before tumor cell injection and thereafter on days 0, 3, 7, 10, 14, 17, and 21 post-tumor cell inoculation. The effectiveness of macrophage depletion was determined by flow cytometry analysis of CD45+F4/80+CD11b+Ly6G-Ly6Clow-int cells among splenocytes from the treated animals.
NXS2 Cells (2.5×10^5 in 100 μL of PBS) were transplanted into syngeneic 8-weeks old female A/J mice (Harlan Laboratories, Gannat, France) i.v., to induces liver metastasis 6. Mice received either mAb 8B6 (25 μg, i.v.) or mAb P84 (200 μg, i.p.) twice a week for 3 consecutive weeks beginning 3 days after tumor cell injection. Isotretinoin was given orally diluted in Ora-Plus® at 10 mg/kg daily for 5 consecutive days, starting week 3 after tumor cell challenge. Mice were euthanized on day 27 post-tumor challenge. Anti-tumor efficacy was evaluated by liver weight of the fresh specimen as described previously 6.

`CC1=C(/C=C/C(C)=C/C=C/C(C)=C\C(=O)O)C(C)(C)CCC1` [13-cis-RA, 13-cis-retinoic acid] was tested, and the CD47 cell-surface expression (CD47 [1]) was “induces up-regulation of CD47”, the CD47 cell-surface expression (CD47 [2]) was “induces up-regulation of CD47; also recorded: induced CD47 up-regulation” and the liver weight (NXS2 cells; FIG. 1B, day 27 after i.v. NXS2 inoculation, 8 mice/group, 8B6 i.v. days 3,7,10,14,17,21, 13-cis-RA 10 mg/kg per os) was 1.19 ± 0.0 g. The liver weight (NXS2 cells; FIG. 4B, day 27, 8B6 25 μg i.v., P84 i.p. days 3,7,10,14,17,21, 13-cis-RA 10 mg/kg per os days 17-21) was 1.95 ± 0.12 g.
